Assay results reported in ChEMBL document CHEMBL5291721, “A preclinical secondary pharmacology resource illuminates target-adverse drug reaction associations of marketed drugs” (Nat Commun, 2023).

Experiments:
[1] = molecular target: T1, Alpha-2B adrenergic receptor (Homo sapiens, UniProt P18089)
T1 sequence (P18089 whole entry): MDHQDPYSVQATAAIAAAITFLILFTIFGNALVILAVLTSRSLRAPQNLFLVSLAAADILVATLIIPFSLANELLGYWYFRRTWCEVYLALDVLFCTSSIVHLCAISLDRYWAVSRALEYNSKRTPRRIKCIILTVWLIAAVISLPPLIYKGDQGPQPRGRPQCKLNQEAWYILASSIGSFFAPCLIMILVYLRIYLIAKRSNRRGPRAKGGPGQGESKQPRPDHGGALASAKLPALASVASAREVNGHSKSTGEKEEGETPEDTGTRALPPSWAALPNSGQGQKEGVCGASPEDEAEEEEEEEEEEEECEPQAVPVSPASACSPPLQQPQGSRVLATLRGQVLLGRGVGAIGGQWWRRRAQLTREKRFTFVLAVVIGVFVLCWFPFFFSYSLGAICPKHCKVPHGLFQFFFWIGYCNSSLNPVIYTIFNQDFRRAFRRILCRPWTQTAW

[2] = molecular target: 5-hydroxytryptamine receptor 2A (Homo sapiens, UniProt P28223); assay type: functional, cell-based
[3] = molecular target: Histamine H2 receptor (Homo sapiens, UniProt P25021); assay type: functional, cell-based
[4] = molecular target: Vasopressin V1a receptor (Homo sapiens, UniProt P37288)
[5] = molecular target: T2, Gastrin/cholecystokinin type B receptor (Homo sapiens, UniProt P32239)
T2 sequence (P32239 whole entry): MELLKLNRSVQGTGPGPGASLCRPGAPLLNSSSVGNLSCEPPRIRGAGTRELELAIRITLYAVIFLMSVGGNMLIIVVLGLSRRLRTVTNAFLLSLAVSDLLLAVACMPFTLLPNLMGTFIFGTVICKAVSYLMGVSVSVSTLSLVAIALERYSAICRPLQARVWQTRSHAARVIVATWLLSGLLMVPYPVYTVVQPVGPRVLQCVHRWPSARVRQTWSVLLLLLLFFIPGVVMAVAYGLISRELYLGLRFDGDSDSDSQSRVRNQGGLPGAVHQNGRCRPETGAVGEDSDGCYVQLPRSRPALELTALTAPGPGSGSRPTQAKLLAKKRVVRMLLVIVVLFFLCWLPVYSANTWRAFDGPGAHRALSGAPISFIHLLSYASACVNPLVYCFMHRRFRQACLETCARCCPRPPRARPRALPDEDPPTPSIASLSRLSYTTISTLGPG

[6] = molecular target: T3, Endothelin-1 receptor (Homo sapiens, UniProt P25101)
T3 sequence (P25101 whole entry): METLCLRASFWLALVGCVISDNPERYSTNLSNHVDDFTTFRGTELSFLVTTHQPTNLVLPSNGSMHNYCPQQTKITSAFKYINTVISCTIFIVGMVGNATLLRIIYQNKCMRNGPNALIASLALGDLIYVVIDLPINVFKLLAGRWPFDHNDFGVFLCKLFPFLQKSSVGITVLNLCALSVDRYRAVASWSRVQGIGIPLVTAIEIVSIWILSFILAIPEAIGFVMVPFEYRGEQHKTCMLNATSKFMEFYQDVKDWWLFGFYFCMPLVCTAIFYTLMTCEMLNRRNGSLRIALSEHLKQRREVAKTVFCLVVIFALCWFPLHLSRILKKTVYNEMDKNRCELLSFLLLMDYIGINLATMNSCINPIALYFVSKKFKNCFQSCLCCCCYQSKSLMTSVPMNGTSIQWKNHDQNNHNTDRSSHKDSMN

[7] = molecular target: T4, Thromboxane A2 receptor (Homo sapiens, UniProt P21731); assay type: functional, cell-based
T4 sequence (P21731 whole entry): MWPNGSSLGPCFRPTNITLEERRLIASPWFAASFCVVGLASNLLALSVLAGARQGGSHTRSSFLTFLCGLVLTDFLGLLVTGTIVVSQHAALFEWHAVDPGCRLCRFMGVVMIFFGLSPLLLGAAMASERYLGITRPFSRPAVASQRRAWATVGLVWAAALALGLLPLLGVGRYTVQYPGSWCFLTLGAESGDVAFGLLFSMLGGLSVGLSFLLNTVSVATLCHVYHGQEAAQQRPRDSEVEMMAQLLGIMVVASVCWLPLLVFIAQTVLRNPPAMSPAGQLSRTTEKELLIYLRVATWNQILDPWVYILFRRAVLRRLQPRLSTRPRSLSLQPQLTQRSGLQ

[8] = molecular target: Sodium-dependent noradrenaline transporter (Homo sapiens, UniProt P23975)
[9] = molecular target: Histamine H3 receptor (Homo sapiens, UniProt Q9Y5N1)
Note: assay procedure not described here.

Sequence of Vasopressin V1a receptor (P37288 whole entry): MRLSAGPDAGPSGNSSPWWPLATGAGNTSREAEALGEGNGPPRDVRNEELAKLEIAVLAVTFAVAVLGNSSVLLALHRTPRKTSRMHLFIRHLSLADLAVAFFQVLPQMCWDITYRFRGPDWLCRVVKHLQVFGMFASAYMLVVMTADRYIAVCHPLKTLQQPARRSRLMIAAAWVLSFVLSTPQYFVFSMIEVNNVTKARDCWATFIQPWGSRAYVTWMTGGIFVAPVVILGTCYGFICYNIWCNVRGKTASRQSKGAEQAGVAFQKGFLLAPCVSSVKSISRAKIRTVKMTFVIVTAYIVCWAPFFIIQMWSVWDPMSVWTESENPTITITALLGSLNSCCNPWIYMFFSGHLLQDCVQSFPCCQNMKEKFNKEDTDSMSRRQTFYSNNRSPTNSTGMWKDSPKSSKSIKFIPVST
Sequence of 5-hydroxytryptamine receptor 2A (P28223 whole entry): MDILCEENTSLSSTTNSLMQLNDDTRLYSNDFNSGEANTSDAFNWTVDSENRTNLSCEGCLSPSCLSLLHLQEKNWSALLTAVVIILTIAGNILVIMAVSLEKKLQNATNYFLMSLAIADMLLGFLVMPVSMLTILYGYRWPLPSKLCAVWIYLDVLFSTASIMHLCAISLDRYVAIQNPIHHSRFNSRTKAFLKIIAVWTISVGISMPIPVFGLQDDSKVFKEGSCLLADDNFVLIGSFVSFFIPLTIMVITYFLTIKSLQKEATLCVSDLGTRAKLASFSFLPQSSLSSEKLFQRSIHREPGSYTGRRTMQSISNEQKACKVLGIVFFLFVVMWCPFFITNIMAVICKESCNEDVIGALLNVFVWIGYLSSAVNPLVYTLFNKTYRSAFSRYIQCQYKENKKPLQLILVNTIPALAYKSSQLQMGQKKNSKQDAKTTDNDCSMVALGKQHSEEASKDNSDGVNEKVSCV
Sequence of Histamine H2 receptor (P25021 whole entry): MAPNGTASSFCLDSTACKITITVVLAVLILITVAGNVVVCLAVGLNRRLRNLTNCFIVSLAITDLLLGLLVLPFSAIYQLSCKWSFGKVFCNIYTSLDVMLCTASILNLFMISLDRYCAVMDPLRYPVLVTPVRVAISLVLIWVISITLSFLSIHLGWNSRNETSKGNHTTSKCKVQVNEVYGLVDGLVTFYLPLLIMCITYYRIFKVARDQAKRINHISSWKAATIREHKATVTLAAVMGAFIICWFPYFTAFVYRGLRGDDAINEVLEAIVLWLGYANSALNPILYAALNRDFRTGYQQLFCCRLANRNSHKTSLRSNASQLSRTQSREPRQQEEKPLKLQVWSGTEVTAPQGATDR
Sequence of Sodium-dependent noradrenaline transporter (P23975 whole entry): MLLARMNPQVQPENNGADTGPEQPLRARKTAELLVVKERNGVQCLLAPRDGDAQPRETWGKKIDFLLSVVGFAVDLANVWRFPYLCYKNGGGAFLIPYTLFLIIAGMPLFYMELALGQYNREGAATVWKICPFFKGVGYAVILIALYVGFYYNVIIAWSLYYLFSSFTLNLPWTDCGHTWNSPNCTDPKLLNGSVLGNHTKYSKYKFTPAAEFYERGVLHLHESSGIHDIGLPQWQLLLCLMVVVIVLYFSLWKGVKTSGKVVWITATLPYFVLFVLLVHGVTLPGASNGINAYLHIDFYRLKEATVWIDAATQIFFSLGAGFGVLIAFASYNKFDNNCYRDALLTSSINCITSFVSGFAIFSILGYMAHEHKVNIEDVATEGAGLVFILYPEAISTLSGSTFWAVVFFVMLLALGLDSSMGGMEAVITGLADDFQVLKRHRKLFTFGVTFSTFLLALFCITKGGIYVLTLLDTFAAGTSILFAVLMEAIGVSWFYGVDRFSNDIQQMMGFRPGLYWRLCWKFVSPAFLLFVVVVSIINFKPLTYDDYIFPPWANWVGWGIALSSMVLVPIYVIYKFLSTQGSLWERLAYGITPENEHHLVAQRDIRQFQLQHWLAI
Sequence of Histamine H3 receptor (Q9Y5N1 whole entry): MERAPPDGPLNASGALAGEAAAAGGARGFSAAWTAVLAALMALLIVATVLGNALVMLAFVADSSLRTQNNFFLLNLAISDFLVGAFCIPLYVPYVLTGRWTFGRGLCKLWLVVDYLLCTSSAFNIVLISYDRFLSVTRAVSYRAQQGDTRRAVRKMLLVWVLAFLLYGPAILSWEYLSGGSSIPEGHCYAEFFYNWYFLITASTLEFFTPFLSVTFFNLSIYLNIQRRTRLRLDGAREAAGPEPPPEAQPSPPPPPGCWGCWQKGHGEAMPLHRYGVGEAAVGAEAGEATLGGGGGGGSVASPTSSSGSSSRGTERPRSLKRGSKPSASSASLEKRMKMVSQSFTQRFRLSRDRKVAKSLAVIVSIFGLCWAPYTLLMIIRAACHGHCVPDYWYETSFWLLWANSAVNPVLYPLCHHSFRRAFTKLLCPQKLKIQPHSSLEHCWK

| SMILES | AC50 [1] [µM] | AC50 [2] [µM] | AC50 [3] [µM] | AC50 [4] [µM] | AC50 [5] [µM] | AC50 [6] [µM] | AC50 [7] [µM] | AC50 [8] [µM] | AC50 [9] [µM] |
| --- | --- | --- | --- | --- | --- | --- | --- | --- | --- |
| CC(C(=O)O)c1ccc(C(=O)c2cccs2)cc1 (configuration not stated) [SUPROFEN] | > 10 | > 10 | > 10 | > 10 | – | – | – | – | – |
| Cc1cccc(C)c1OCC(C)N (configuration not stated) [MEXILETINE] | – | – | > 30 | – | > 30 | > 30 | – | – | – |
| C[C@@H]1O[C@@H]1P(=O)(O)O [FOSFOMYCIN] | > 10 | > 10 | > 10 | > 10 | – | – | – | – | – |
| CC(C)NNC(=O)c1ccncc1 [IPRONIAZID] | – | – | – | – | – | > 30 | – | – | – |
| COC(=O)N[C@H](C(=O)N[C@@H](Cc1ccccc1)[C@@H](O)CN(Cc1ccc(-c2ccccn2)cc1)NC(=O)[C@@H](NC(=O)OC)C(C)(C)C)C(C)(C)C [ATAZANAVIR] | > 10 | > 10 | > 10 | > 30 | > 30 | – | – | – | – |
| CO/N=C(\C(=O)N[C@@H]1C(=O)N2C(C(=O)[O-])=C(C[N+]3(C)CCCC3)CS[C@H]12)c1csc(N)n1 | – | > 300 | > 30 | > 300 | > 30 | > 300 | – | – | – |
| NC1=NC(=O)C(c2ccccc2)O1 (configuration not stated) [PEMOLINE] | – | – | > 10 | – | > 30 | – | – | – | – |
| COC(=O)[C@@H]1CC2=CC(=O)CC[C@]2(C)[C@@]23O[C@@H]2C[C@@]2(C)[C@@H](CC[C@@]24CCC(=O)O4)[C@H]13 [EPLERENONE] | > 30 | > 30 | > 10 | > 30 | > 30 | > 30 | – | – | – |
| O=C(CCCCCCC(=O)Nc1ccccc1)NO [VORINOSTAT] | > 30 | > 30 | > 30 | > 30 | > 30 | > 30 | – | – | – |
| CN1CCCC(n2nc(Cc3ccc(Cl)cc3)c3ccccc3c2=O)CC1 (configuration not stated) [AZELASTINE] | 3.8 | > 30 | – | > 30 | – | > 30 | – | – | – |
| NC[C@H]1O[C@H](O[C@H]2[C@H](O)[C@@H](O[C@H]3O[C@H](CO)[C@@H](O)[C@H](N)[C@H]3O)[C@H](N)C[C@@H]2N)[C@H](O)[C@@H](O)[C@@H]1O [KANAMYCIN] | – | – | > 30 | – | – | – | – | – | – |
| COC(=O)C1=C(C)NC(C)=C(C(=O)OCC(C)C)C1c1ccccc1[N+](=O)[O-] (configuration not stated) [NISOLDIPINE] | – | – | > 30 | – | – | – | – | – | – |
| CC(C)NCC(O)COc1ccc(COCCOC(C)C)cc1 (configuration not stated) [BISOPROLOL] | > 10 | > 30 | > 10 | > 10 | > 30 | > 30 | – | – | – |
| COc1cc(Nc2c(C#N)cnc3cc(OCCCN4CCN(C)CC4)c(OC)cc23)c(Cl)cc1Cl [BOSUTINIB] | > 10 | – | – | 4.7 | > 30 | > 30 | > 3 | 24.1 | – |
| CC(C)(C(=O)c1cccnc1)c1cccnc1 [METYRAPONE] | – | – | > 10 | – | – | – | – | – | – |
| CC(=O)OCC(=O)[C@@]1(O)CC[C@H]2[C@@H]3CCC4=CC(=O)CC[C@]4(C)[C@H]3C(=O)C[C@@]21C [CORTISONE ACETATE] | – | – | > 30 | – | – | – | – | – | – |
| OCc1cc([C@@H](O)CNCCCCCCOCCOCc2c(Cl)cccc2Cl)ccc1O [VILANTEROL] | > 30 | > 30 | – | > 30 | – | > 30 | – | – | – |
| Cc1ccc(C(=O)c2cc(O)c(O)c([N+](=O)[O-])c2)cc1 [TOLCAPONE] | > 10 | > 10 | > 10 | > 10 | – | – | – | – | – |
| CCC(=O)O[C@H]1[C@H](O[C@@H]2[C@@H](C)[C@H](O[C@H]3C[C@@](C)(OC)[C@@H](O)[C@H](C)O3)[C@@H](C)C(=O)O[C@H](CC)[C@@](C)(O)[C@H](O)[C@@H](C)C(=O)[C@H](C)C[C@@]2(C)O)O[C@H](C)C[C@@H]1N(C)C [ERYTHROMYCIN PROPIONATE] | – | – | – | – | – | – | > 3 | 29.9 | > 30 |
